Experimental data: patent publication US20220177911A1, “SYNTHETIC CIRCUIT FOR CELLULAR MULTISTABILITY” (California Institute of Technology, priority 2020, published 2022)

Experiments:
[1] = tested on: reporter containing 18 bp homodimer binding sites driving the expression of Citrine; test: Transient co-transfection Citrine reporter assay of ZF transcription factors; assay type: cell-based, Chinese hamster
Excerpt: To engineer ZF transcription factors, the ErbB2 ZF DNA-binding domain was fused to a GCN4 homodimerization domain and a VP48 transcriptional activation domain to create the synthetic transcription factor, termed ZF-GCN4-AD (FIG. 2A). A transcription factor (ZF-AD) lacking GCN4 was used as a monomeric control. To assay their transcriptional activity, a reporter was constructed containing 18 bp homodimer binding sites driving the expression of Citrine. Each transcription factor was then co-transfected together with the reporter and an mTagBFP2 co-transfection marker into Chinese hamster ovary K1 (CHO-K1) cells, and analyzed for Citrine expression by flow cytometry 36 hours later (FIG. 2A and FIG. 9A) (See, “Additional Methods” below). […] Arginine-to-alanine mutations were introduced at key positions in the ZF known to weaken DNA binding, which decreased monomeric activity without reducing homodimer activity (FIG. 2A, red square). […]
All tissue culture experiments were performed with Chinese hamster ovary K1 cells (CHO-K1, ATCC). […] Cells were harvested after 36 hours and cell fluorescence was measured by flow cytometry. […] After another 72 hours, cells were harvested and analyzed by flow cytometry. […] The inhibition strength was quantified as the reduction of self-activation cell fractions. […]

[2] = tested on: self-activation construct in Tet3G-expressing CHO-K1 cells; test: ZF transcription factor self-activation assay (normalized mCitrine+ fraction); assay type: cell-based, Chinese hamster; details: 24 hours Dox, then Dox withdrawn; 72 hours in AP1903 and/or TMP
Excerpt: To validate this capability, a self-activation construct was designed (FIG. 2C), in which a transcription factor with a FKBP dimerization domain is expressed from a promoter containing its own 18 bp homodimer binding sites (Table 2). This construct allowed independent Dox-inducible activation through upstream Tet3G (Takara Bio) binding sites. […] Finally, a destabilized mCitrine was incorporated for dynamic readout of construct expression. This construct was integrated into Tet3G-expressing CHO-K1 cells, generating a stable polyclonal population for further analysis (Table 3) (See, “Additional Methods” below).
For experiments characterizing ZF transcription factor self-activation (FIG. 2C and FIG. 10A), each self-activation construct was stably integrated (Table 2) into polyclonal Tet3G-expressing CHO-K1 cells via PiggyBac (Systems Biosciences) to make a polyclonal cell line (Table 3). […] After another 72 hours, cells were harvested and analyzed by flow cytometry.
Each self-activation construct (Table 2, construct MF63-MF69) was stably integrated into Tet3G-expressing CHO-K1 cells. […] After another 72 hours, cells were harvested and analyzed by flow cytometry. […]

MultiFate-2.3 cells = test: Flow cytometry analysis of MultiFate-2.3 state-switching; assay type: cell-based, Chinese hamster
Excerpt: FIG. 21A-FIG. 21C depict non-limiting exemplary data related to raw flow cytometry analysis of MultiFate-2.3 state-switching. Each plot represents one of three biological replicates at the indicated time point (cf. FIG. 4B). Initial A-only, B-only and A+B cells (rows) were sorted under the media conditions indicated on the top. Each 2-dimensional flow cytometry plot was divided at mCherry=104 and mCitrine=104 into four quadrants, representing four states. For each plot, the percentage of cells in each of the four states is labeled on the corresponding corner. Timelines above each set of plots represent the time and indicated inducer conditions. Note that since the response elements for 4-OHT or Dox are adjacent to the transcription factor homodimer binding sites (Table 2), the addition of 4-OHT or Dox increases A or B expression up to, but not substantially beyond, the level produced by transcription factor self-activation. […] Additional Dox activation further increased the B expression only by another 1.4 fold (Day 6 versus Day 18).
Finally, it was asked to what extent cells could be deliberately switched from one state to another through transient perturbations. MultiFate-2.3, in which the A and B genes can be independently activated by 4-hydroxy-tamoxifen (4-OHT) and Dox, respectively, was used to address this question. In this cell-line, the response elements for the inducers are adjacent to the homodimer binding sites. Therefore, the addition of inducers increases A or B expression up to, but not substantially beyond, the level produced by self-activation (FIG. 2C and FIG. 21A-FIG. 21C). In the bistable regime, transient induction of either transcription factor switched cells into the corresponding state, where they remained in the absence of further induction (FIG. 8A, FIG. 4B, left, and FIG. 21A). […]
For flow cytometry experiments characterizing state stability (FIG. 3C and FIG. 5B) and state-switching dynamics (FIG. 4A-FIG. 4B), cells from each state were sorted into media containing corresponding inducers. […] The remaining 96% cells were suspended in the flow cytometry buffer and analyzed by flow cytometry. […]
To characterize long-term state stability of MultiFate cells in different media conditions (FIG. 3A-FIG. 5D), 4% of cells were trypsinized and transferred into fresh media with the same condition every three days. The remaining cells were resuspended in flow cytometry buffer and analyzed by a flow cytometer. The resulting two-dimensional (or three-dimensional for MultiFate-3) fluorescence intensity plots were then divided into four quadrants (or eight octants) by an empirical threshold in each of the two (or three) fluorescence channels. […]

[3] = tested on: monoclonal self-activation stable lines (42ZFR2AR39AR67A DNA-binding domain); test: Inhibition of self-activation by competitive dimerization; assay type: cell-based, Chinese hamster; details: 100 nM AP1903 and 10 μM TMP
Excerpt: To test this, monoclonal cell lines with the self-activating circuits were selected, and then constructs expressing proteins were stably integrated with a different ZF DNA-binding domain and a matching or mismatching dimerization domain to generate a polyclonal cell population for each perturbation construct (Table 2 and Table 3) (See, “Additional Methods” below). […] Without being bound by any particular theory, this may be through non-specific mechanisms (FIG. 2D and FIG. 10B-FIG. 10C).
All tissue culture experiments were performed with Chinese hamster ovary K1 cells (CHO-K1, ATCC). […] Cells were harvested after 36 hours and cell fluorescence was measured by flow cytometry. […] After another 72 hours, cells were harvested and analyzed by flow cytometry. […] The inhibition strength was quantified as the reduction of self-activation cell fractions.
To determine whether competitive dimerization inhibits self-activation (FIG. 2D and FIG. 10B-FIG. 10C), plasmids (Table 2, construct MF72-MF80) expressing different transcription factor variants and a co-translational mCherry were stably integrated in these two monoclonal lines. After puromycin selection, cells were transferred into media containing 100 nM AP1903+10 μM TMP to permit self-activation, and measured by flow cytometry after another 72 hours. […]

homodimerization domain [4] = details: cited from earlier work
homodimerization domain [5] = target: T1, homodimerization domain (Homo sapiens, UniProt P62942, F37V); test: Dissociation constant of homodimerization domains (parameter estimate); assay type: binding; details: media containing 100 nM AP1903; reasoned from reporter activation versus GCN4; read-out: apparent dissociation constant Kd of homodimerization
T1 construct: expressed in transfected cells; host or cells: CHO-K1
T1 sequence (P62942 2-108 F37V): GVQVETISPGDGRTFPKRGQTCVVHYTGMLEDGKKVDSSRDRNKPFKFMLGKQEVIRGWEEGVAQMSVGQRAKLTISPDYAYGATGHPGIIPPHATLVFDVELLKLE
Procedure: Finally, parameters related to protein dimerization were estimated. In some embodiments, the apparent dissociation constant Kd of FKBP homodimerization domain may depend on AP1903 concentrations. […] Based on this observation, it was reasoned that in media containing 100 nM AP1903, the apparent dissociation constant Kd≤10 nM. An estimate of Kd=10 nM=8000 molecules/cell was used in the model. For monomer association rate kon, an intermediate value in the range of diffusion-limited association rates of kon=4×10^5/(M·s)=1.8×10^−3 cell/(protein·hr) was used. These two values together produce a dimer dissociation rate koff=Kd×kon=[…].

ZF-GCN4-AD: ErbB2 ZF DNA-binding domain fused to GCN4 homodimerization domain and VP48 activation domain
reporter activation by ZF transcription factor ([1]; ErbB2 ZF, VP48 activation domain, wild-type (WT) ZF, flow cytometry 36 hours after transfection): strongly activated the reporter

COc1cc(Cc2cnc(N)nc2N)cc(OC)c1OC [TMP, trimethoprim]
self-activation after Dox withdrawal (mCitrine distribution) [2]: promoted self-activation in a dose-dependent manner

NLS-FKBP12F36V-BCRZFR39A-VP16-NLS-DHFR [transcription factor A]
increase in A expression by transcription factor self-activation (mCherry median Day 18 / Day 0) (MultiFate-2.3 cells; mean of three replicates): 125 fold

4-hydroxy-tamoxifen [4-OHT]
additional increase in A expression by inducer compared with self-activation (Day 6 versus Day 18) (MultiFate-2.3 cells; 4-OHT 25 nM): 2.8 fold

C[C@H]1c2cccc(O)c2C(=O)C2=C(O)[C@]3(O)C(=O)C(C(N)=O)=C(O)[C@@H](N(C)C)[C@@H]3[C@@H](O)[C@@H]21 [Dox]
additional increase in B expression by inducer compared with self-activation (Day 6 versus Day 18) (MultiFate-2.3 cells; Dox 500 ng/ml): 1.4 fold

NLS-FKBP12F36V-37ZFR2AR11AR39AR67A-VP16-NLS-DHFR [transcription factor B]
increase in B expression by transcription factor self-activation (Day 18 versus Day 0) (MultiFate-2.3 cells): 48 fold

GCN4: GCN4 homodimerization domain
inhibition of self-activation ([3]; 42ZFR2AR39AR67A-GCN4-VP48-DHFR self-activation cells): did not have inhibitory effects | Kd (homodimerization domain [4]): 10 to 20 nM

FKBP: FKBP12F36V homodimerization domain (SEQ ID NO: 5)
Kd (homodimerization domain [5]): ≤ 10 nM | inhibition of self-activation ([3]; FKBP-42ZFR2AR39AR67A-VP48-DHFR self-activation cells): can partially inhibit self-activation

CC[C@H](C(=O)N1CCCC[C@H]1C(=O)O[C@H](CCc1ccc(OC)c(OC)c1)c1cccc(OCC(=O)NCCNC(=O)COc2cccc([C@@H](CCc3ccc(OC)c(OC)c3)OC(=O)[C@@H]3CCCCN3C(=O)[C@@H](CC)c3cc(OC)c(OC)c(OC)c3)c2)c1)c1cc(OC)c(OC)c(OC)c1 [AP1903]
control of ZF transcription factor dimerization/activation by dimerization ligand ([1]; FKBP12F36V (FKBP) homodimerization domain instead of GCN4, BCRZFR39A): dose-dependent control of dimerization | self-activation after Dox withdrawal (mCitrine distribution) [2]: bimodal distribution of mCitrine fluorescence
